Test results reported in patent US8119669B2, “Substituted phenoxy N-alkylated thiazolidinediones as estrogen related receptor-α modulators” (Janssen Pharmaceutica N.V., priority 2007, dated 2012).

Target: T1, ERR1 (also known as ERR-α or ERR-1) (Homo sapiens, UniProt P11474)
T1 sequence (P11474 193-421 limits assumed): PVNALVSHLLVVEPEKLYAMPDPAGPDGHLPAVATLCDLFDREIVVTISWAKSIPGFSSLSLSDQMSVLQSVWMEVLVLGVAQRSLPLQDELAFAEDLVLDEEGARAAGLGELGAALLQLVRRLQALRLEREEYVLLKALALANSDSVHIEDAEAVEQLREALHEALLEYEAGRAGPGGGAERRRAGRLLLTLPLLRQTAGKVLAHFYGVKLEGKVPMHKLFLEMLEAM
Experiment: TR-FRET Assay (disruption of co-activator peptide binding to ERR1 LBD)
Format: biochemical
Conditions: 6His-tagged ERR1 LBD 6 nM, GST-hSRC2 co-activator peptide 6 nM; 25° C., 4-18 hours; average of 3 independent experiments
Method: Time-Resolved Fluorescence Resonance Energy Transfer (TR-FRET) experiments were performed to examine the functional response of ERR1 (also known as ERR-α or ERR-1) ligands. The TR-FRET assay described herein relied on the conformation of ERR1 for binding to a co-activator peptide: when a test compound binds to ERR1 and alters its conformation, it can disrupt the binding of the co-activator peptide. The components of this homogeneous secondary assay included: the ^6His-tagged-ERR1LBD, a GST-labeled-hSRC2 co-activator polypeptide and a fluorescent donor/acceptor pair from CIS bio international htrf/bioassays (Bedford, Mass.) using both an α-GST Europium Cryptate (Eu) label and an α^6His-XL665 (allophycocyanin) fluorophore.
For TR-FRET measurements, the reaction was buffered in 25 mM Tris pH 8, 2.5 mM Hepes, 20 mM KCl, 1 mM DTT, and 0.05 mg/mL BSA (-lipids). The final concentrations of reagents were 6 nM of ERR1LBD, 6 nM GST-SRC-2 peptide, 30 nM Eu cryptate, and 7.5 nM XL665. Reactions were allowed to reach equilibrium at 25° C. for 4-18 hours before collecting data on the Analyst from LJL Biosystems (Molecular Devices Sunnyvale, Calif.). As a time-resolved method, the samples were excited at […] and emission was collected for 1 ms at both 615 and 665 nm with delays of 400 and 75 μs, respectively. Dose response curves were fitted using a hyperbolic equation and the data reported is the average of 3 independent experiments.

EC50 [nM]	SMILES
20	COc1cc(/C=C2\SC(=O)N(CCN3CCOCC3)C2=O)ccc1Oc1ccc(C#N)cc1C(F)(F)F [Compound 1, 4-{2-Methoxy-4-[3-(2-morpholin-4-yl-ethyl)-2,4-dioxo-thiazolidin-5-ylidenemethyl]-phenoxy}-3-trifluoromethyl-benzonitrile]
39	COc1cc(/C=C2\SC(=O)N(CCN(C)C)C2=O)ccc1Oc1ccc(C#N)cc1C(F)(F)F [Compound 2, 4-{4-[3-(2-Dimethylamino-ethyl)-2,4-dioxo-thiazolidin-5-ylidenemethyl]-2-methoxy-phenoxy}-3-trifluoromethyl-benzonitrile]
42	COc1cc(/C=C2\SC(=O)N(CCN3CCCC3)C2=O)ccc1Oc1ccc(C#N)cc1C(F)(F)F [Compound 3, 4-{4-[2,4-Dioxo-3-(2-pyrrolidin-1-yl-ethyl)-thiazolidin-5-ylidenemethyl]-2-methoxy-phenoxy}-3-trifluoromethyl-benzonitrile]
320	COc1cc(/C=C2\SC(=O)N(CCN3CCN(C)CC3)C2=O)ccc1Oc1ccc(C#N)cc1C(F)(F)F [Compound 4, 4-(2-Methoxy-4-{3-[2-(4-methyl-piperazin-1-yl)-ethyl]-2,4-dioxo-thiazolidin-5-ylidenemethyl}-phenoxy)-3-trifluoromethyl-benzonitrile]
360	CN(C)CCN1C(=O)S/C(=C\c2ccc(Oc3ccc(C#N)cc3C(F)(F)F)c(F)c2)C1=O [Compound 5, 4-{4-[3-(2-Dimethylamino-ethyl)-2,4-dioxo-thiazolidin-5-ylidenemethyl]-2-fluoro-phenoxy}-3-trifluoromethyl-benzonitrile]
320	N#Cc1ccc(Oc2ccc(/C=C3\SC(=O)N(CCN4CCOCC4)C3=O)cc2F)c(C(F)(F)F)c1 [Compound 6, 4-{2-Fluoro-4-[3-(2-morpholin-4-yl-ethyl)-2,4-dioxo-thiazolidin-5-ylidenemethyl]-phenoxy}-3-trifluoromethyl-benzonitrile]
59	CCN(CC)CCN1C(=O)S/C(=C\c2ccc(Oc3ccc(C#N)cc3C(F)(F)F)c(OC)c2)C1=O [Compound 7, 4-{4-[3-(2-Diethylamino-ethyl)-2,4-dioxo-thiazolidin-5-ylidenemethyl]-2-methoxy-phenoxy}-3-trifluoromethyl-benzonitrile]
32	COc1cc(/C=C2\SC(=O)N(CCn3ccnc3)C2=O)ccc1Oc1ccc(C#N)cc1C(F)(F)F [Compound 8, 4-{4-[3-(2-Imidazol-1-yl-ethyl)-2,4-dioxo-thiazolidin-5-ylidenemethyl]-2-methoxy-phenoxy}-3-trifluoromethyl-benzonitrile]
33	COc1cc(/C=C2\SC(=O)N(CCN3CCCCC3)C2=O)ccc1Oc1ccc(C#N)cc1C(F)(F)F [Compound 9, 4-{4-[2,4-Dioxo-3-(2-piperidin-1-yl-ethyl)-thiazolidin-5-ylidenemethyl]-2-methoxy-phenoxy}-3-trifluoromethyl-benzonitrile]
59	COc1cc(/C=C2\SC(=O)N(CCn3cccn3)C2=O)ccc1Oc1ccc(C#N)cc1C(F)(F)F [Compound 10, 4-{4-[2,4-Dioxo-3-(2-pyrazol-1-yl-ethyl)-thiazolidin-5-ylidenemethyl]-2-methoxy-phenoxy}-3-trifluoromethyl-benzonitrile]
24	COc1cc(/C=C2\SC(=O)N(CCn3cncn3)C2=O)ccc1Oc1ccc(C#N)cc1C(F)(F)F [Compound 11, 4-{4-[2,4-Dioxo-3-(2-[1,2,4]triazol-1-yl-ethyl)-thiazolidin-5-ylidenemethyl]-2-methoxy-phenoxy}-3-trifluoromethyl-benzonitrile]
44	COc1cc(/C=C2\SC(=O)N(CCN3CCCCCC3)C2=O)ccc1Oc1ccc(C#N)cc1C(F)(F)F [Compound 12, 4-{4-[3-(2-Azepan-1-yl-ethyl)-2,4-dioxo-thiazolidin-5-ylidenemethyl]-2-methoxy-phenoxy}-3-trifluoromethyl-benzonitrile]
86	COc1cc(/C=C2\SC(=O)N(CCn3cccc3)C2=O)ccc1Oc1ccc(C#N)cc1C(F)(F)F [Compound 13, 4-{4-[2,4-Dioxo-3-(2-pyrrol-1-yl-ethyl)-thiazolidin-5-ylidenemethyl]-2-methoxy-phenoxy}-3-trifluoromethyl-benzonitrile]
230	N#Cc1ccc(Oc2ccc(/C=C3\SC(=O)N(CCN4CCCC4)C3=O)cc2F)c(C(F)(F)F)c1 [Compound 14, 4-{4-[2,4-Dioxo-3-(2-pyrrolidin-1-yl-ethyl)-thiazolidin-5-ylidenemethyl]-2-fluoro-phenoxy}-3-trifluoromethyl-benzonitrile]
